Laboratory results published in patent US20040043937A1, “Peptide and peptide mimetic derivatives with integrin-inhibitors properties II” (priority 2000, published 2004).
Where no end group is shown, it is not given here.

System: mouse MC3T3 H1 osteoblast cultures
Test: Cell adhesion test: adhesion of osteoblast cultures in vitro to peptide-coated material surfaces
Assay type: cell-based
Conditions: 50 000 cells/cm^2 inoculated, incubation in serum-free medium at 37° C./95% atmospheric humidity for one hour
Procedure: Example for Cell Adhesion Test The adhesion of mouse MC3T3 H1 osteoblast cultures in vitro to peptide-coated material surfaces was investigated. In this test, 50 000 cells/cm^2 were inoculated and, after incubation in serum-free medium at 37° C./95% atmospheric humidity for one hour, the proportion of adhered cells was determined. Cell adhesion rate [%]=adhered cells/inoculated cells×100 The coating of culture surfaces made of polystyrene precoated with bovine serum albumin (BSA) with thiol peptides is disclosed in the prior art (see DE 198 18098 (Merck Patent GmbH), Ex. 2). The coating of PMMA surfaces with acrylate peptides is also described in DE 198 18098, Ex. 3.

| Substance | cell adhesion rate [%] (adhered cells/inoculated cells×100) |
| --- | --- |
| Cys-Aca-Aca-Thr-Trp-Tyr-Lys-Ile-Ala ({Cys-Aca-Aca}-TWYKIA) [linear peptide with thiol (Cys) anchor] | 7% |
| Cys-Aca-Aca-Thr-Trp-Tyr-Lys-Ile-Ala-Phe-Gln-Arg ({Cys-Aca-Aca}-TWYKIAFQR) [linear peptide with thiol (Cys) anchor] | 17% |
| Cys-Aca-Aca-Thr-Trp-Tyr-Lys-Ile-Ala-Phe-Gln-Arg-Asn-Arg-Lys ({Cys-Aca-Aca}-TWYKIAFQRNRK) [linear peptide with thiol (Cys) anchor] | 101% |
| Gua-Mab-azaGly-Asp-Hda-εAhx-εAhx-Aca | 75% |
| Lys-Ile-Ala-Phe-Gln-Arg-Asn-Arg-Lys-Aca-Aca-Cys (KIAFQRNRK-{Aca-Aca-Cys}) [linear peptide with thiol (Cys) anchor] | 96% |
| Phe-Gln-Arg-Asn-Arg-Lys-Aca-Aca-Cys (FQRNRK-{Aca-Aca-Cys}) [linear peptide with thiol (Cys) anchor] | 13% |
| Thr-Trp-Tyr-Lys-Ile-Ala-Phe-Gln-Arg-Asn-Arg-Lys-Aca-Aca-Cys (TWYKIAFQRNRK-{Aca-Aca-Cys}) [linear peptide with thiol (Cys) anchor] | 105% |
